From patent US4623639A (Hoffmann-La Roche Inc., priority 1983, dated 1986)
Structures can show the parent of a compound that is named as a salt.

Assays:
[1] = biological target: T1, Human granulocyte elastase (Homo sapiens, UniProt P08246); assay: Assay of the inhibition of human granulocyte elastase (succinyl (Ala)3-p-nitroanilide cleavage); format: biochemical; settings: succinyl (Ala)3-p-nitroanilide substrate, 0.2M Tris HCl pH 8.0, 37° C., 1 hour; read-out: IC50 (concentration required to give 50% inhibition)
T1 sequence (P08246 30-267): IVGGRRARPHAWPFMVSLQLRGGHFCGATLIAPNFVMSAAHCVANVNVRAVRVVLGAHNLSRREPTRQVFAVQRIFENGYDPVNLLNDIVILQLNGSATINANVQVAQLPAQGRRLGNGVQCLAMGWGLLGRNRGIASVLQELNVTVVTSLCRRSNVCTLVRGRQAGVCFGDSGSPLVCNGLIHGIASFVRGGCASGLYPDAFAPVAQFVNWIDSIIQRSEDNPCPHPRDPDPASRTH
Procedure: ASSAY OF THE INHIBITION OF HUMAN GRANULOCYTE ELASTASE TEST METHOD
This assay is based on the method of J. Bieth, B. Spiess and C. G. Wermuth, Biochem. 11, (1974), 350.
Succinyl (Ala)3 -p-nitroanilide (20 μl of a 125 mM solution in N-methylpyrrolidone) was diluted in buffer (3 ml, 0.2M Tris HCl, pH 8.0) and warmed to 37° C. Human granulocyte elastase (4 μg in 20 μl of buffer) was added to initiate the reaction, which was terminated after 1 hour at 37° C. by the addition of glacial acetic acid (100 μl). The p-nitroaniline released was determined by measuring the extinction of the solution at 410 nm by means of a spectrophotometer. The compounds of the present invention, in 50 μl of methanol, were added to the buffered substrate prior to the addition of the human granulocyte elastase and the substrate cleavage rate was compared with solvent controls. The concentration of compound of the present invention required to give 50% inhibition was determined.

[2] = tested on: male mice; assay: Maximum tolerated dose test (no gross behavioural effects); format: in vivo; settings: observed 6 hours and 24 hours after administration
Procedure: MAXIMUM TOLERATED DOSE TEST TEST METHOD
This test determines the maximum acute dose of a compound of this invention which causes no gross behavioural effects.
Groups of 3 male mice are administered 400 mg/kg and 100 mg/kg of a compound of this invention subcutaneously, intravenously or intraperitoneally. The mice are observed periodically during the 6 hours after the administration and 24 hours after the administration. Evidence of stimulation, sedation, loss of righting reflex, convulsions, tremor, death and other gross effects are noted. If effects are observed, the compound is tested at lower dosages in order to determine the no gross effect level. The results are expressed as the maximum dose administered in mg/kg which causes no gross behavioural effects.

| Compound | IC50 [1] | dosage at which no behavioural effects were observed ([2]; intraperitoneally) | dosage at which no behavioural effects were observed ([2]; intravenously) | dosage at which no behavioural effects were observed ([2]; subcutaneously) |
| --- | --- | --- | --- | --- |
| CC(C)CNC(=O)[C@@H]1CCCN1C(=O)[C@H](CCCCNC(=O)CC[C@H](N)C(=O)O)NCCC1CCC2CC1C2(C)C (some centres unmarked) [dihydrobromide] | 16000 nM |  |  |  |
| CC(C)[C@@H](C=O)NC(=O)[C@@H]1CCCN1C(=O)[C@H](CCCCNC(=O)c1ccc(C(=O)O)cc1)NS(=O)(=O)C12CC3CC(CC(C3)C1)C2 [N^α -(1-adamantylsulphonyl)-N^ε -(4-carboxybenzoyl)-L-lysyl-L-prolyl-L-valinal] | 60 nM | 100 mg/kg | 100 mg/kg | 400 mg/kg |
| CC(C)[C@@H](C=O)NC(=O)[C@@H]1CCCN1C(=O)[C@H](CCCCNC(=O)c1ccccc1C(=O)O)NS(=O)(=O)C12CC3CC(CC(C3)C1)C2 [N^α -(1-adamantylsulphonyl)-N^ε -(2-carboxybenzoyl)-L-lysyl-L-prolylvalinal] | 90 nM |  |  |  |
| CC(C)[C@@H](C=O)NC(=O)[C@@H]1CCCN1C(=O)[C@H](CCCCNC(=O)CCC(=O)O)NS(=O)(=O)C12CC3CC(CC(C3)C1)C2 [N^α -(1-adamantylsulphonyl)-N^ε -succinyl-L-lysyl-L-prolyl-L-valinal] | 80 nM |  | 100 mg/kg | 400 mg/kg |
| CC(C)[C@@H](C=O)NC(=O)[C@H](C)NC(=O)[C@H](CCCCNC(=O)c1ccc(C(=O)O)cc1)NS(=O)(=O)C12CC3CC(CC(C3)C1)C2 [N^α -(1-adamantylsulphonyl)-N^ε -(4-carboxybenzoyl)-L-lysyl-L-alanyl-L-valinal] | 50 nM | 100 mg/kg | 100 mg/kg | 400 mg/kg |
| CC(C)[C@@H](C=O)NC(=O)[C@@H]1CCCN1C(=O)[C@H](CCCCNC(=O)CCCCC(=O)O)NS(=O)(=O)C12CC3CC(CC(C3)C1)C2 [N^α -(1-adamantylsulphonyl)-N^ε -adipoyl-L-lysyl-L-prolylvalinal] | 80 nM |  |  |  |
| CC(C)[C@@H](C=O)NC(=O)[C@H](C)NC(=O)[C@H](CCCCNC(=O)CCC(=O)O)NS(=O)(=O)C12CC3CC(CC(C3)C1)C2 [N^α -(1-adamantylsulphonyl)-N^ε -succinyl-L-lysyl-L-alanylvalinal] | 120 nM |  |  |  |
| CC(C)CNC(=O)[C@@H]1CCCN1C(=O)[C@H](CCCCNC(=O)CCC(=O)O)NCCC12CC3CC(CC(C3)C1)C2 [N^α -(1-adamantylethyl)-N^ε -succinyl-L-lysyl-L-proline isobutylamide] | 4500 nM | 50 mg/kg |  |  |
